According to patent US8377981B2, “CBI derivatives subject to reductive activation” (The Scripps Research Institute, priority 2007, dated 2013):
Like-named read-outs stand apart in the source and are kept apart here.

Legend:
[1] = test system: H460 (mitomycin-sensitive, expresses high levels of DT-Diaphorase) non small cell lung cancer (NSCLC) cell line; assay: Cytotoxic activity, H460 cell line; type: cell-based; details: for IC50: Homo sapiens, NCI-H460, read-out: IC50 (nM) H460
Method: (§1) The O-amino phenol derivatives bearing the N—O prodrug linkages and the various N-acyl substituents were assayed for cytotoxic activity alongside the parent drugs CBI-TMI (2) (Boger, D. L.; Yun, W. J. Am. Chem. Soc. 1994, 116, 7996) and mitomycin C (Boger, D. L.; et al. Bioorg. Med. Chem. Lett. 1991, 1, 115; Boger, D. L.; et al. Bioorg. Med. Chem. 1995, 3, 1429) as well as the two control standards 9 and 10 incapable of free phenol release. Three cell lines were examined including a standard L1210 cell line (mouse leukemia) as well as the mitomycin-sensitive (H460, expresses high levels of DT-Diaphorase) and resistant (H596, lacks DT-Diaphorase) non small cell lung cancer (NSCLC) cell lines, with results shown in the Table below.

[2] = test system: w794 duplex DNA; assay: DNA alkylation selectivity and efficiency (thermally-induced strand cleavage); type: biochemical
Method: FIG. 1 illustrates the results of an electrophoresis gel with 8% denaturing PAGE and autoradiography. Thermally-induced strand cleavage of w794 DNA; DNA-agent incubation at 4° C. for 18 hours, removal of unbound agent by EtOH precipitation, and 30 minutes of thermolysis (100° C.) followed by 8% denaturing PAGE and autoradiography. Lane 1, control DNA; lanes 2-5, Sanger G, C, A, and T sequencing reactions; lanes 6-8, 2 (1×10^−4 to 1×10^−6); lanes 9-11, 10 (1×10^−1 to 1×10^−3); lanes 12-14, 4 (1×10^−1 to 1×10^−3), lanes 15-17, 9 (1×10^−1 to 1×10^−3).
The DNA alkylation properties of 4 were examined alongside the parent drug CBI-TMI (2), and the two control standards 9 and 10 (incapable of spirocyclization) within w794 duplex DNA (Boger, D. L.; et al. Tetrahedron 1991, 47, 2661) for which results for an extensive series of duocarmycin analogues have been reported. The sites of DNA alkylation and its efficiency were directly assessed by thermally-induced singly 5′ end-labeled duplex DNA strand cleavage following incubation with the agents ([…], natural enantiomers examined).
The DNA alkylation reactions were performed by treatment of 4.5 μL of singly ^32P 5′-end-labeled double-stranded w794 DNA (Boger, D. L.; et al. Tetrahedron 1991, 47, 2661) in TE buffer (10 mM Tris, 1 mM EDTA, pH 7.6) with 0.5 μL of agent in EtOH (at the specified concentration). […] Unbound agent was removed by EtOH precipitation of DNA (0.5 μL of 3.0 M sodium acetate and 12.5 μL of cold absolute EtOH) and the solutions were stored at −78° C. for 1 hour or longer. The DNA was pelleted by centrifugation at 4° C. (13000 rpm, 25 minutes), dried in a Savant Speed Vac concentrator, and resuspended in 5 μL of TE buffer (pH 7.6). Thermal depurination (3×10 minutes at 100° C.) was performed and then 2.5 μL of formamide dye solution was added to the cooled samples. Thermally denatured samples were assayed by gel electrophoresis [8% denaturing gel with 8 M urea in TBE buffer (89 mM Tris-borate, 2 mM EDTA)] followed by autoradiography of the dried gel using Kodak BIOMAX XAR film and a Picker Spectra™ intensifying screen.

[3] = Chemical stability and reactivity of the N-acyl O-amino phenol derivatives; type: physicochemical
[4] = test system: L1210 cell line (mouse leukemia); assay: Cytotoxic activity, L1210 cell line; type: cell-based
Method: as §1

[5] = test system: H596 (mitomycin-resistant, lacks DT-Diaphorase) non small cell lung cancer (NSCLC) cell line; assay: Cytotoxic activity, H596 cell line; type: cell-based; details: Homo sapiens, NCI-H596, read-out: IC50 (nM) H596
Method: as §1

[6] = Stability in pH 7.0 phosphate buffer; type: physicochemical; details: HPLC, UV; monitored 72 hours
[7] = Stability in human plasma; type: in vitro ADME; details: 50 μg/100 μL, 10% DMSO, release of free drug 2
[8] = Mus musculus, L1210, read-out: IC50 (nM) L1210, natural enantiomer series, CBI-TMI derivatives

SMILES | IC50 [1] [nM] | potency compared with 2 ([1]; against H460/H596) | DNA alkylation efficiency, reduction relative to CBI-TMI (2) ([2]; w794 DNA, 4° C., 18 hours, natural enantiomers) | DNA alkylation sequence selectivity ([2]; w794 DNA, compared with CBI-TMI (2)) | stability to treatment with BnSH in MeOH with NaHCO3 ([3]; BnSH in MeOH, NaHCO3, 2 hours, 23° C.) | stability to treatment with BnSH ([3]; BnSH in THF (2-72 hours, 23° C.) or MeOH (2-72 hours, 23° C.)) | stability to treatment with BnSH in THF with insoluble NaHCO3 ([3]; BnSH in THF, insoluble NaHCO3, 2 hours, 23° C.) | stability in MeOH ([3]; MeOH) | stability to NaHCO3 or Na2CO3 in MeOH ([3]; NaHCO3 or Na2CO3 in MeOH, 2 hours, 23° C.) [was released slowly] | stability to acidic conditions ([3]; TFA-CH2Cl2, 4 N HCl-EtOAc) | stability on long term storage ([3]; storage) | IC50 [4, 8] [nM] | fold less potent than 2 ([4]; against L1210, natural enantiomer) [fold] | IC50 [5] [nM] | stability in pH 7.0 phosphate buffer [6] | half-life [7] [h] | DNA alkylation under forcing conditions ([2]; 37° C., 18 hours, data not shown) | observable DNA alkylation ([2]; w794 DNA, 4° C., 18 hours) | DNA alkylation relative to that of 2 ([2]; w794 DNA, natural enantiomers) [%] | IC50 ([4]; read-out: IC50 (nM) L1210, natural enantiomer series, CBI-TMI derivatives) [nM]
COc1cc2cc(C(=O)N3C[C@@H](CCl)c4c3cc(ONC(=O)OC(C)(C)C)c3ccccc43)[nH]c2c(OC)c1OC [Compound 4] | 1 | essentially equipotent | 1,000-10,000 fold | identical sequence selectivity | cleaved to release 2 | stable | stable | stable | 2 | surprisingly robust to acidic conditions | withstanding even long term storage effectively | 0.5 | 10 | 6 | no significant cleavage of the prodrug was observed | 3 |  |  |  | 
COc1cc2cc(C(=O)N3C[C@@H](CCl)c4c3ccc3ccccc43)[nH]c2c(OC)c1OC [Compound 9] | > 100 |  |  |  |  |  |  |  |  |  |  | > 100 |  | > 100 |  |  | no appreciable DNA alkylation | failed to exhibit significant observable DNA alkylation |  | 
COc1cc2cc(C(=O)N3C[C@@H](CCl)c4c3cc(OC)c3ccccc43)[nH]c2c(OC)c1OC [Compound 10] | > 100 |  |  |  |  |  |  |  |  |  |  | > 100 |  | > 100 |  |  |  | failed to exhibit significant observable DNA alkylation | < 0.01 | 50
